Molecular target: T1, wildtype HIV-1 protease (Human immunodeficiency virus type 1 group M subtype B, UniProt P04585)
T1 construct: preincubated with the HIV-1 protease (wild type) enzyme in assay buffer; made in house; host or cells: Escherichia coli
Experiment: Assay for Inhibition of Microbial Expressed HIV Protease (Pepcleav)
Type: biochemical
Description: Assay for Inhibition of Microbial Expressed HIV Protease (“Pepcleav”)
Studies of the inhibition of the wildtype HIV-1 protease (which was expressed in Escherichia coli) were carried out with a peptide substrate [Val-Ser-Gln-Asn-(βnaphthyl)Ala-Pro-Ile-Val (SEQ ID NO: 1)]. The inhibitor was first preincubated with the HIV-1 protease (wild type) enzyme in assay buffer (50 mM sodium acetate, pH 5.5, 100 mM NaCl, and 0.1% BSA) for 30 minutes at room temperature. Substrate was added to 400 micromolar in a total volume of 20 microliters containing 20 picomolar HIV-1 protease (final) and the reaction was incubated for 1 hour at 30° C. The reaction was quenched with the addition of formic acid and indinavir to 0.012% and 150 nM final concentrations, respectively. The product formation was determined after separation of product and substrate on a Zorbax Eclipse XDB-C18 column connected to an API 4000 mass spectrometer (Applied Biosystems) with multiple reaction monitoring (transitions were 644.5/428.9 and 615.4/422.2 (M1/M3) for product and indinavir respectively). The extent of inhibition of the reaction was determined from the peak area of the products. Analysis of the products, independently synthesized, provided quantitation standards and confirmation of the product composition.

| Structure (SMILES) | IC50 [nM] |
| --- | --- |
| O=C(CCc1ccccc1Cl)Nc1cccc(F)c1CC[C@@H]1CN[C@H](c2nc3ccccc3[nH]2)CO1 [Example 99, N-(2-{2-[(2R,5R)-5-(1H-benzimidazol-2-yl)morpholin-2-yl]ethyl}-3-fluorophenyl)-3-(2-chlorophenyl) propanamide] | 11 |
| COC(=O)N[C@H](C(=O)Nc1ccccc1CC[C@@H]1CN[C@H](c2ncc(-c3ccccc3)[nH]2)CO1)C(c1ccccc1)c1ccccc1 [Example 45, Nα-(methoxycarbonyl)-β-phenyl-N-(2-{2-[(2R,5R)-5-(5-phenyl-1H-imidazol-2-yl)morpholin-2-yl]ethyl}phenyl)-L-phenylalaninamide] | 0.041 |
| COC(=O)N[C@H](C(=O)Nc1ccccc1CC[C@@H]1CN[C@H](c2nnnn2Cc2ccccc2)CO1)C(c1ccccc1)c1ccccc1 [Example 39, methyl [(1S)-2-[(2-{2-[(2R,5R)-5-(1-benzyl-1H-tetrazol-5-yl)morpholin-2-yl]ethyl}phenyl)amino]-1-(diphenylmethyl)-2-oxoethyl]carbamate] | 653 |
| COC(=O)N[C@H](C(=O)Nc1ccccc1CC[C@@H]1CN[C@H](c2nc3cc(C)c(C)cc3[nH]2)CO1)C(c1ccccc1)c1ccccc1 [Example 9, methyl N-[(1S)-1-benzhydryl-2-[[2-[2-[(2R,5R)-5-(5,6-dimethyl-1H-benzimidazol-2-yl)morpholin-2-yl]ethyl]phenyl]amino]-2-oxo-ethyl]carbamate] | 0.0516 |
| COC(=O)N[C@H](C(=O)Nc1cncc(F)c1CC[C@@H]1CN[C@H](c2nc3cc(C)c(C)cc3[nH]2)CO1)C(c1ccccc1)c1ccccc1 [Example 31, methyl N-[(1S)-1-benzhydryl-2-[[4-[2-[(2R,5R)-5-(5,6-dimethyl-1H-benzimidazol-2-yl)morpholin-2-yl]ethyl]-5-fluoro-3-pyridyl]amino]-2-oxo-ethyl]carbamate] | 0.00965 |
| COC(=O)N[C@H](C(=O)Nc1ccccc1CC[C@@H]1CN[C@H](c2cnc(-c3ccccc3)[nH]2)CO1)C(c1ccccc1)c1ccccc1 [Example 46, Nα-(methoxycarbonyl)-β-phenyl-N-(2-{2-[(2R,5R)-5-(2-phenyl-1H-imidazol-5-yl)morpholin-2-yl]ethyl}phenyl)-L-phenylalaninamide] | 841 |
| Cc1cc2nc([C@@H]3CO[C@H](CCc4cc[nH]c(=O)c4NC(=O)[C@@H](N)C(c4ccccc4)c4ccccc4)CN3)[nH]c2cc1C [Example 34, N-(4-{2-[(2R,5R)-5-(5,6-dimethyl-1H-benzimidazol-2-yl)morpholin-2-yl]ethyl}-2-oxo-1,2-dihydropyridin-3-yl)-β-phenyl-L-phenylalaninamide] | 0.168 |
| COC(=O)N[C@H](C(=O)Nc1ccccc1CC[C@@H]1CN[C@H](c2nc3cc(F)c(Cl)cc3[nH]2)CO1)C(c1ccccc1)c1ccccc1 [Example 27, N-(2-{2-[(2R,5R)-5-(6-chloro-5-fluoro-1H-benzimidazol-2-yl)morpholin-2-yl]ethyl}phenyl)-Na-(methoxycarbonyl)-b-phenyl-L-phenylalaninamide] | 0.658 |
| COC(=O)N[C@H](C(=O)Nc1ccccc1CC[C@@H]1CN[C@H](c2csc(Cc3ccccc3)n2)CO1)C(c1ccccc1)c1ccccc1 [Example 84] | 150 |
| COC(=O)N[C@H](C(=O)Nc1ccccc1CC[C@@H]1CN[C@H](c2nc3cc(F)c(Br)cc3[nH]2)CO1)C(c1ccccc1)c1ccccc1 [Example 20, methyl N-[(1S)-1-benzhydryl-2-[[2-[2-[(2R,5R)-5-(6-bromo-5-fluoro-1H-benzimidazol-2-yl)morpholin-4-ium-2-yl]ethyl]phenyl]amino]-2-oxo-ethyl]carbamate] | 0.525 |
| N[C@H](C(=O)Nc1cncc(F)c1CC[C@@H]1CN[C@H](c2nc3cc(C(=O)NCC(F)(F)F)ccc3[nH]2)CO1)C(c1ccccc1)c1ccccc1 [Example 101, N-(5-fluoro-4-{2-[(2R,5R)-5-{5-[(2,2,2-trifluoroethyl)carbamoyl]-1H-benzimidazol-2-yl}morpholin-2-yl]ethyl}pyridin-3-yl)-β-phenyl-L-phenylalaninamide] | 26 |
| COC(=O)N[C@H](C(=O)Nc1ccccc1CC[C@@H]1CN[C@H](c2nc3cccc(Cl)c3[nH]2)CO1)C(c1ccccc1)c1ccccc1 [Example 13, methyl N-[(1S)-1-benzhydryl-2-[[2-[2-[(2R,5R)-5-(7-chloro-1H-benzimidazol-2-yl)morpholin-2-yl]ethyl]phenyl]amino]-2-oxo-ethyl]carbamate] | 0.137 |
| COC(=O)N[C@H](C(=O)Nc1ccccc1CC[C@@H]1CN[C@H](c2nc3c(C)cc(Cl)cc3[nH]2)CO1)C(c1ccccc1)c1ccccc1 [Example 24, methyl N-[(1S)-1-benzhydryl-2-[[2-[2-[(2R,5R)-5-(6-chloro-4-methyl-1H-benzimidazol-2-yl)morpholin-2-yl]ethyl]phenyl]amino]-2-oxo-ethyl]carbamate] | 16.3 |
| COC(=O)N[C@H](C(=O)Nc1ccccc1CC[C@@H]1CN[C@H](c2nc3cccc(C)c3[nH]2)CO1)C(c1ccccc1)c1ccccc1 [Example 3, methyl N-[(1S)-1-benzhydryl-2-[[2-[2-[(2R,5R)-5-(7-methyl-1H-benzimidazol-2-yl)morpholin-2-yl]ethyl]phenyl]amino]-2-oxo-ethyl]carbamate] | 0.0639 |
| COC(=O)N[C@H](C(=O)Nc1ccccc1CC[C@@H]1CN[C@H](c2[nH]c3ccccc3c2C=[N+](C)C)CO1)C(c1ccccc1)c1ccccc1 [Example 90, N-[(2-{(3R,6R)-6-[2-(2-{[N-(methoxycarbonyl)-β-phenyl-L-phenylalanyl]amino}phenyl)ethyl]morpholin-3-yl}-1H-indol-3-yl)methylidene]-N-methylmethanaminium] | 68 |
| N[C@H](C(=O)Nc1cccc(F)c1OC[C@@H]1CN[C@H](c2nc3ccccc3[nH]2)CO1)C(c1ccccc1)c1ccccc1 [Example 94, N-(2-{[(2S,5R)-5-(1H-benzimidazol-2-yl)morpholin-2-yl]methoxy}-3-fluorophenyl)-β-phenyl-L-phenylalaninamide] | 0.22 |
| COC(=O)N[C@H](C(=O)Nc1ccccc1CC[C@@H]1CN[C@H](c2nc3c(C)ccnc3[nH]2)CO1)C(c1ccccc1)c1ccccc1 [Example 23, methyl N-[(1S)-1-benzhydryl-2-[[2-[2-[(2R,5R)-5-(7-methyl-3H-imidazo[4,5-b]pyridin-2-yl)morpholin-2-yl]ethyl]phenyl]amino]-2-oxo-ethyl]carbamate] | 3.13 |
| N[C@@H](Cc1ccccc1Cl)C(=O)Nc1cccc(F)c1CC[C@@H]1CN[C@H](c2nc3ccccc3[nH]2)CO1 [Example 102, N-(2-{2-[(2R,5R)-5-(1H-benzimidazol-2-yl)morpholin-2-yl]ethyl}-3-fluorophenyl)-2-chloro-L-phenylalaninamide] | 17 |
| COC(=O)N[C@H](C(=O)Nc1ccccc1CC[C@@H]1CN[C@H](c2nnn[nH]2)CO1)C(c1ccccc1)c1ccccc1 [Example 38, Nα-(methoxycarbonyl)-β-phenyl-N-(2-{2-[(2R,5R)-5-(1H-tetrazol-5-yl)morpholin-2-yl]ethyl}phenyl)-L-phenylalaninamide] | 2 |
| COC(=O)N[C@H](C(=O)Nc1ccccc1CC[C@@H]1CN[C@H](c2nc3nccnc3[nH]2)CO1)C(c1ccccc1)c1ccccc1 [Example 21, methyl N-[(1S)-1-benzhydryl-2-[[2-[2-[(2R,5R)-5-(3H-imidazo[4,5-b]pyrazin-2-yl)morpholin-2-yl]ethyl]phenyl]amino]-2-oxo-ethyl]carbamate] | 1.68 |
| COC(=O)N[C@H](C(=O)Nc1cncc(F)c1CC[C@@H]1CN[C@H](c2nc3cc(F)c(F)cc3[nH]2)CO1)C(c1ccc(F)cc1)c1ccc(F)cc1 [Example 76, N-(4-{2-[(2R,5R)-5-(5,6-difluoro-1H-benzimidazol-2-yl)morpholin-2-yl]ethyl}-5-fluoropyridin-3-yl)-4-fluoro-β-(4-fluorophenyl)-Nα-(methoxycarbonyl)-L-phenylalaninamide] | 0.02 |
| COC(=O)N[C@H](C(=O)Nc1ccccc1CC[C@@H]1CN[C@H](c2nc3ccccc3[nH]2)CO1)C(c1ccccc1)c1ccccc1 [Example 1, N-(2-{2-[(2R,5R)-5-(1H-benzimidazol-2-yl)morpholin-2-yl]ethyl}phenyl)-Nα-(methoxycarbonyl)-β-phenyl-L-phenylalaninamide] | 0.0374 |
| COC(=O)N[C@H](C(=O)Nc1ccccc1CC[C@@H]1CN[C@H](c2nc3c(Cl)cc(C(F)(F)F)cc3[nH]2)CO1)C(c1ccccc1)c1ccccc1 [Example 26, methyl N-[(1S)-1-benzhydryl-2-[[2-[2-[(2R,5R)-5-[4-chloro-6-(trifluoromethyl)-1H-benzimidazol-2-yl]morpholin-2-yl]ethyl]phenyl]amino]-2-oxo-ethyl]carbamate] | 65.6 |
| O=C(C[C@@H](c1ccc(F)cc1)c1ccncc1F)Nc1cccc(F)c1CC[C@@H]1CN[C@H](c2nc3ccccc3[nH]2)CO1 [Example 73, (3S)—N-(2-{2-[(2R,5R)-5-(1H-benzimidazol-2-yl)morpholin-2-yl]ethyl}-3-fluorophenyl)-3-(4-fluorophenyl)-3-(3-fluoropyridin-4-yl)propanamide] | 0.01 |
| COC(=O)N[C@H](C(=O)Nc1ccccc1CC[C@@H]1CN[C@H](c2nnc(Cc3ccccc3)[nH]2)CO1)C(c1ccccc1)c1ccccc1 [Example 81] | 2.8 |

— patent publication US9737545B2 (MERCK SHARP & DOHME CORP., priority 2013, dated 2017)
